“Also recorded” adds a separate entry of the source. Read-outs that look alike come from different tables or passages of the source.
How the values were obtained:
HEMn-MP cells [1] = assay: Cytotoxicity for HEMn-MP cells with or without UVB radiation (Test Example 3); assay type: cell-based, human; conditions: UVB 20 mJ/cm^3 irradiated vs unirradiated HEMn-MP cells, day 7
From the text: In order to investigate the effect of UVB radiation on the cytotoxicity of the whitening ingredients, cytotoxicity was compared for groups treated with the whitening ingredients without UVB radiation and groups irradiated with UVB at […] and then treated with the whitening ingredients (FIG. 5). That is to say, the response of the cells excited by UVB radiation to various whitening ingredients was investigated. After irradiating the cells with UVB and treating the cells with the samples, increase in cytotoxicity was determined and the ratio of cytotoxicity as compared to before the treatment was calculated (Table 7).
The ratio (%) of toxicity for the UVB-irradiated cells as compared to UVB-unirradiated cells was determined at representative concentrations (3 points) for each whitening ingredient. The ratio was corrected for the cytotoxicity of the control group (15-20%).

A375 cells = assay: Cytotoxic concentration for A375 cells depending on treatment time (CCK-8, Test Example 1-2); assay type: cell-based, human; conditions: for Change in cytotoxicity after removal of the samples: A375 cells treated for a day, then cultured further for 2 days after removing the samples; for CC20 / CC50: A375 cells
Protocol: (§1) The A375 (human melanoma cell line) cells were purchased from the ATCC (Cat. No. CRL-1619, USA). As a cell culture medium, DMEM (Cat. No. 12-604, Lonza, USA) supplemented with 10% FBS (Cat. No. 16000-044, Gibco, USA) was used. Subculturing and cytotoxicity test were conducted in the same manner as for the HEM cells.
(§2) Cytotoxicity was measured with Cell Counting Kit-8 (CCK-8) manufactured by Dojindo Molecular Technologies (USA). After removing the medium from the 96-well plate, 200 μL of 10% CCK-8 in the same medium was added to each well. After incubation at 37° C. for about 2 hours, absorbance of 100 μL of the medium was measured at 450 nm using an ELISA reader. As the cells […], the color of CCK-8 shifts to longer wavelength from colorless to orange color.
(§3) Cell survivability was calculated according to Equation 1. Cell survivability (%)={(Asample−Ab)/(Ac−Ab)}×100 [Equation 1]
(§4) The cytotoxicity of the whitening ingredients for A375 (human melanoma cell line, Cat. No. CRL-1619) cells with different treatment time was investigated. The toxicity was measured for 3 different sample treatment conditions. The cytotoxicity was measured after treating with the whitening ingredients for 24 hours, after treating with the samples for 24 hours and 48 hours later after exchanging with fresh media, and after treating with the samples for 72 hours without exchange of media. The result is shown as graphs (FIG. 3). Based on the measurement result, CC20 and CC50 were calculated for the whitening ingredients and treatment time. Then, the ratio of the cytotoxic concentration on day 3 as compared to day 1 was calculated (Table 3).

[2] = as above; assay type: cell-based, human; conditions: human, A375 cells (melanoma cell line), A375 cells; for CC50 at 24 hours: Day 1 (24 hours); for CC50 at 3 days: Day 3
Protocol: as §1, §2, §3, §4

HEMn-MP cells [3] = assay: Inhibition of melanin production in HEMn-MP cells and correlation factor with cytotoxic concentration (Test Example 2); assay type: cell-based, human; conditions: for CC20/EC50 / EC50 / CC50/EC50: HEMn-MP cells, day 7; for CC20/EC50: 20% cytotoxic concentration divided by EC50 of melanin production; for EC50: read-out: EC50 (50% inhibitory concentration of melanin synthesis); for CC50/EC50: 50% cytotoxic concentration divided by EC50 of melanin production
Protocol: The inhibitory effect of melanin production of the whitening ingredients for HEMn-MP cells was investigated. After treating the cells with the samples at concentrations shown in Table 4 and culturing for 7 days, the amount of melanin was measured as compared to a control group (0.5% DMSO) (FIG. 4). Also, EC50 (50% effective inhibitory concentration of melanin production) was calculated for the whitening ingredients (Table 5). Then, CC20 or CC50 was divided by EC50 to investigate the correlation factor (difference) between the cytotoxicity and the effective inhibitory concentration of melanin production (Table 6).
Table 6 compares the correlation factor between the cytotoxic concentration (CC50) and the inhibitory concentration of melanin synthesis (EC50) of the whitening ingredients on day 7. CC20/EC50 is the value obtained by dividing the 20% cytotoxic concentration by the 50% effective inhibitory concentration of melanin production and represents the correlation factor of the 20% cytotoxic concentration and the effective concentration. CC50/EC50 is the value obtained by dividing the 50% cytotoxic concentration by the 50% effective inhibitory concentration of melanin production and represents the correlation factor of the 50% cytotoxic concentration and the effective concentration.

HEMn-MP cells [4] = assay: Cytotoxic concentration for HEMn-MP cells depending on treatment time (CCK-8, Test Example 1-1); assay type: cell-based, human
Protocol: (§5) The HEMn-MP (human epidermal melanocytes, neonatal, moderately pigmented donor, Cat. No. C-102-5C) cells were purchased from Life Technologies (USA). As a cell culture medium, medium 254 (Cat. No. M-254-500) supplemented with HMGS (Cat. No. S-002-5) was used. The cells were cultured according to the manufacturer's manual and cells during passages 3-8 were used. To summarize, the cells were cultured on a 175 T flask in a 5% CO2 incubator at 37° C. During subculturing, the cells were separated using 0.05% trypsin-EDTA, collected by centrifugation (1200 rpm, 5 minutes) and cultured after seeding to 5×10^3 cells/cm^2. For cytotoxicity test, the cells were seeded onto a 96-well plate with 2×10^4 cells/well, cultured for a day and treated with each substance at 200 μL/well. Then, cytotoxicity was measured after a predetermined time.
as §2, §3
(§6) In order to determine the cytotoxic concentration of the whitening ingredients for HEMn-MP (human epidermal melanocytes, neonatal, moderately pigmented donor, Cat. No. C-102-5C) cells, cell survivability (% cell survival rate) was measured as compared to a control group (0.5% DMSO) on days 1 and 7 after treatment with each whitening ingredient at the concentration described in Table 1 (FIG. 2). Based on the measurement result, CC20 and CC50 were calculated for the whitening ingredients and treatment time. Then, the ratio of the cytotoxic concentration on day 7 as compared to day 1 was calculated (Table 2).

[5] = as above; assay type: cell-based, human; conditions: human, HEMn-MP cells (human epidermal melanocytes); for CC50 at 1 day: Day 1; for CC50 at 7 days: Day 7
Protocol: as §5, §2, §3, §6

[6] = consumers of commercialized skin whitening products, cited from earlier work

Row | SMILES | Change in cytotoxicity after removal of the samples (A375 cells) | CC20 (A375 cells; Day 1 (24 hours)) | CC20 (A375 cells; Day 3) | CC50 at 24 hours [2] | CC50 at 3 days [2] | CC20/EC50 (HEMn-MP cells [3]) | EC50 (HEMn-MP cells [3]; Homo sapiens, 168 h) | CC20 (HEMn-MP cells [4]; Day 1) | CC20 (HEMn-MP cells [4]; Day 7) | CC50 at 1 day [5] | CC50 at 7 days [5] | CC50/EC50 (HEMn-MP cells [3]) | Clinical side effect reported by users [6] | Ratio of cytotoxicity (HEMn-MP cells [1]; 1.25 mM) | Ratio of cytotoxicity (HEMn-MP cells [1]; 2.5 mM) | also measured
1 | COc1cc(OC)c(C23CC4CC(CC(C4)C2)C3)cc1C(=O)NCc1ccc(O)cc1O [AP, 5-adamantan-1-yl-N-(2,4-dihydroxybenzyl)-2,4-dimethoxy-benzoic acid amide] | no more increase in cytotoxicity | 25.5 ± 0.8 µM | 17.2 ± 0.09 µM | 33.8 ± 0.7 µM | 19.99 ± 0.06 µM | 11.8 Fold | 0.11 ± 0.01 µM | 3.3 ± 0.4 µM | 1.3 ± 0.0 µM | 5.4 ± 0.3 µM | 2.5 µM | – | – | – | – | Ratio of cytotoxicity (HEMn-MP cells [1]; 0.39 μM): 2%; Ratio of cytotoxicity (HEMn-MP cells [1]; 0.78 μM): 14%; Ratio of cytotoxicity (HEMn-MP cells [1]; 1.56 μM): 0%; Inhibitory effect of melanin production by melanocytes (HEMn-MP cells [3]; Test Example 2): excellent inhibitory effect of melanin production
2 | Oc1ccc(OCc2ccccc2)cc1 [MB, 4-benzyloxy-phenol] | continuously increased toxicity | 119.8 ± 4.7 µM | 2.31 ± 0.07 µM | 295 ± 7.2 µM | 7.19 ± 0.14 µM | 1.3 Fold | 6.8 ± 2.5 µM | 178.2 ± 21.6 µM | 8.9 ± 0.4 µM | 284 ± 28.2 µM | 19 ± 0.7 µM | 2.8 Fold | leukoderma-like side effects | – | – | –
3 | CCCCc1ccc(O)cc1O [RC, 4-butylresorcinol] | no more increase in cytotoxicity | 313.9 ± 10.6 µM | 52.73 ± 4.67 µM | 508 ± 11.3 µM | 122 ± 11 µM | >20 Fold | 2.7 ± 0.6 µM | 170.2 ± 15.9 µM | 69.7 ± 6.1 µM | 347 ± 12.7 µM | 284 ± 20.4 µM | – | – | – | – | Ratio of cytotoxicity (HEMn-MP cells [1]; 31.25 μM): 0%; Ratio of cytotoxicity (HEMn-MP cells [1]; 62.5 μM): 0%; Ratio of cytotoxicity (HEMn-MP cells [1]; 125 μM): 0%; Clinical side effect reported by users ([6]; listed as rucinol): no clinical side effect has been reported; also recorded: no clinical problem has been reported
4 | C[C@@H](O)CCc1ccc(O)cc1 [RD, rhododenol] | continuously increased toxicity | 4200 ± 200 µM | 190 ± 10 µM | – | – | 0.8 Fold | – | 7100 ± 800 µM | 1000 ± 0 µM | – | – | 2.1 Fold | leukoderma-like side effects; also recorded: leukoderma-like symptoms | 24% | 27% | Ratio of cytotoxicity (HEMn-MP cells [1]; 5 mM): 15%; CC50 (A375 cells; Day 1 (24 hours)): 8400 ± 200 µM; CC50 (A375 cells; Day 3): 500 ± 20 µM; EC50 (HEMn-MP cells [3]): 1130 ± 160 µM; CC50 (HEMn-MP cells [4]; Day 1): 10800 ± 700 µM; CC50 (HEMn-MP cells [4]; Day 7): 2400 ± 100 µM
5 | CC(=O)CCc1ccc(O)cc1 [RK, raspberry ketone] | continuously increased toxicity | 6700 ± 100 µM | 240 ± 20 µM | 10700 ± 100 µM | 790 ± 40 µM | 0.4 Fold | 970 ± 90 µM | 6500 ± 200 µM | 400 ± 100 µM | 10400 ± 200 µM | 1400 ± 400 µM | 1.4 Fold | leukoderma-like side effects | 8% | 26% | Ratio of cytotoxicity (HEMn-MP cells [1]; 0.625 mM): 19%

Reference: patent publication US10816541B2, “Method for predicting side effect of whitening ingredient” (AMOREPACIFIC CORPORATION, priority 2015, dated 2020)
